Measurements published in US10654814B2, “Bicyclic hydroxamic acids useful as inhibitors of mammalian histone deacetylase activity” (KANCERA AB, priority 2015, dated 2020).
Where two headings read alike, the source gives them in different places.

What was measured:
[1] = system: U266 (multiple myeloma) cells; test: CellTiter-Blue cell viability assay, U266; format: cell-based; settings: Homo sapiens, U-266; 72 hours of treatment
Procedure: (§1) Method for Measurement of Cell Viability
(§2) The CellTiter-Blue® Cell Viability Assay (Promega) provides a homogeneous, fluorometric method for estimating the number of viable cells present in multi-well plates. The assay uses the indicator dye resazurin to measure the metabolic capacity of cells. Viable cells retain the ability to reduce resazurin into resorufin, which is highly fluorescent.
(§3) Stock solutions (10 mM in DMSO) of compounds were serially diluted 1:2 in 11 concentrations. 50 nL/well (10 mM compound stock in DMSO) was acoustically dispensed in 384-well assay plates with an acoustic dispenser (EDC Biosystems ATS-100AV). Final starting concentration in the assay was 20 μM (0.2% DMSO) for test compounds. The following cell-lines (and origin) have been primarily used: PaCa2 (pancreatic), U266 (multiple myeloma), AMO-1 (plasmacytoma), and MDA-MB-231 (breast adenocarcinoma). PBMCs (peripheral blood mononuclear cells) from healthy donors were used as control cells. Cells were seeded in assay plates (384-well black/clear, Greiner #781091) pre-dispensed with compounds, 25 μL/well, and cultured for 72 hours. After 72 hours, Celltiter Blue reagent (Promega # G8081) was diluted 1:10 with PBS and then added to wells (5 μL/well). The plates were incubated for 2 hours following addition of reagent. The plates were read in an EnVision fluorescence reader (PerkinElmer) with Ex544 nm/Em590 nm. Results were calculated as % cell viability compared to background (cells treated with 0.2% DMSO).

HDAC6 = HDAC6 (Homo sapiens (Human), UniProt Q9UBN7); test: HDAC6 in vitro enzymatic assay (fluorescence); format: biochemical
Method in brief: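 Fluorogenic HDAC substrate reactions contained assay buffer, BSA and compound, followed by developer. Fluorescence was read at ex 360/em 460 nm. Compounds were tested as 11-point 1:3 dilutions from a top of 200 μM for HDAC1, 2 and 3, and from 2 μM for HDAC6, in duplicate.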

HDAC2 = HDAC2 (Homo sapiens (Human), UniProt Q92769); test: HDAC2 in vitro enzymatic assay (fluorescence); format: biochemical; settings: Table 4 selectivity profiling
Procedure: (§4) Biological Tests Method for Measurement of Enzymatic Activity of HDACs Materials & Methods
(§5) All Examples were tested in HDAC1,2,3,6 and 8 in vitro enzymatic assays. The assay principle is well known (Hauser et al. 2009, Bradner et al. 2010) and all necessary reagents like enzymes, substrates, developer and reference compounds are commercially available (see e.g. BPS Biosciences http://www.bpsbioscience.com/). Stock solutions (10 mM in DMSO) of compounds were serially diluted 1:3 in 11 concentrations with a top concentration of 200 μM for HDAC1,2,3 and 2 μM for HDAC6 and HDAC8. The enzymatic reactions were conducted in a mixture containing assay buffer, bovine serum albumin, HDAC substrate, and a test compound. After enzymatic reaction, developer was added and after an additional incubation time, fluorescence intensity was measured at an excitation wavelength of 360 nm and an emission wavelength of 460 nm. All experiments were performed in duplicate.

[2] = system: MDA-MB-231 (breast adenocarcinoma) cells; test: CellTiter-Blue cell viability assay, MDA-MB-231; format: cell-based; settings: Homo sapiens, 72 hours of treatment
Procedure: as §1, §2, §3

[3] = system: PBMCs (peripheral blood mononuclear cells) from healthy donors; test: CellTiter-Blue cell viability assay, healthy PBMC; format: cell-based; settings: 72 hours of treatment
Procedure: as §1, §2, §3

PaCa2 (pancreatic) cells = test: CellTiter-Blue cell viability assay, PaCa2; format: cell-based; settings: PaCa-2; 72 hours of treatment
Procedure: as §1, §2, §3

[4] = system: AMO-1 (plasmacytoma) cells; test: CellTiter-Blue cell viability assay, AMO-1; format: cell-based; settings: Homo sapiens, AMO1; 72 hours of treatment
Procedure: as §1, §2, §3

HDAC8 = HDAC8 (Homo sapiens (Human), UniProt Q9BY41); test: HDAC8 in vitro enzymatic assay (fluorescence); format: biochemical; settings: Table 4 selectivity profiling
Procedure: as §4, §5

HDAC1 = HDAC1 (Homo sapiens (Human), UniProt Q13547); test: HDAC1 in vitro enzymatic assay (fluorescence); format: biochemical; settings: Table 4 selectivity profiling
Procedure: as §4, §5

HDAC3 = HDAC3 (Homo sapiens (Human), UniProt O15379); test: HDAC3 in vitro enzymatic assay (fluorescence); format: biochemical; settings: Table 4 selectivity profiling
Procedure: as §4, §5

[5] = Table 3, read-out: IC50 (nM) for inhibition of HDAC6
[6] = Table 4 selectivity profiling, read-out: IC50 (nM) HDAC6

Chain of HDAC8 (Q9BY41 whole entry): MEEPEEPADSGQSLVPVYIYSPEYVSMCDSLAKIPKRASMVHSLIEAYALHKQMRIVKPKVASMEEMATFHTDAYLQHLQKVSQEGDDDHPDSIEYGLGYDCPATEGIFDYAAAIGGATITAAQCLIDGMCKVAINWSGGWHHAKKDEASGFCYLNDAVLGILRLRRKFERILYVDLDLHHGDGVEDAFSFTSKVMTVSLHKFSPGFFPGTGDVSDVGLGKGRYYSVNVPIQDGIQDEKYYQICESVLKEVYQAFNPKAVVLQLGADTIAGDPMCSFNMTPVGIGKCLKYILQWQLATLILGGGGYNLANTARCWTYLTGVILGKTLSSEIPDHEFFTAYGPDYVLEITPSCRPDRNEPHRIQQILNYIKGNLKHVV
Chain of HDAC3 (O15379 whole entry): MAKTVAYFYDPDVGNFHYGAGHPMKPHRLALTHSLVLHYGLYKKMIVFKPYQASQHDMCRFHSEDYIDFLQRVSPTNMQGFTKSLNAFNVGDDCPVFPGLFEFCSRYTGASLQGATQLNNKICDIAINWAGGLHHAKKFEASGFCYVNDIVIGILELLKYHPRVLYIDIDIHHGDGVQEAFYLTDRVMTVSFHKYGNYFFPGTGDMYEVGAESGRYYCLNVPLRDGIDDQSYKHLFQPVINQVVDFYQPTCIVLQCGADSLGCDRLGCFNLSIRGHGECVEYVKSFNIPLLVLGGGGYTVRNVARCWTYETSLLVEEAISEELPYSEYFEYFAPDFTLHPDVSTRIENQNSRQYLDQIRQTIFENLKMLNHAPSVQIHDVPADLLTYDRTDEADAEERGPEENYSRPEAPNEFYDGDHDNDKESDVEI
Chain of HDAC3 (Q9Y618 395-489 partner): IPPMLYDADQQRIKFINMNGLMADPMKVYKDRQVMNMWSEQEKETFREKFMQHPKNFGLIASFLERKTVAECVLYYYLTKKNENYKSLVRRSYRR
Chain of HDAC1 (Q13547 whole entry): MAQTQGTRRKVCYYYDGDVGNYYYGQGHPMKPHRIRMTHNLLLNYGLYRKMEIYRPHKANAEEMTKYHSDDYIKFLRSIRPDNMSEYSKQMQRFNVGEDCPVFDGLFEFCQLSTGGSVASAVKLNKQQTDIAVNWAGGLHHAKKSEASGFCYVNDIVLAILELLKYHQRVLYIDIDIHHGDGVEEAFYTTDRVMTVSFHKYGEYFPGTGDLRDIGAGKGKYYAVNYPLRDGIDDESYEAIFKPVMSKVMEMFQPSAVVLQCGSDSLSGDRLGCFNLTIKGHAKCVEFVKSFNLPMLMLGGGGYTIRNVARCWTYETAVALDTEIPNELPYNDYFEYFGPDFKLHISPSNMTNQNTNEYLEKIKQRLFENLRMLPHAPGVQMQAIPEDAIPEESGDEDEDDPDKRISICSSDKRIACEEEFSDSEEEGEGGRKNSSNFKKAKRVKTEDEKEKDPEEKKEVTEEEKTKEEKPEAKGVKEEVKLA
Chain of HDAC2 (Q92769 whole entry): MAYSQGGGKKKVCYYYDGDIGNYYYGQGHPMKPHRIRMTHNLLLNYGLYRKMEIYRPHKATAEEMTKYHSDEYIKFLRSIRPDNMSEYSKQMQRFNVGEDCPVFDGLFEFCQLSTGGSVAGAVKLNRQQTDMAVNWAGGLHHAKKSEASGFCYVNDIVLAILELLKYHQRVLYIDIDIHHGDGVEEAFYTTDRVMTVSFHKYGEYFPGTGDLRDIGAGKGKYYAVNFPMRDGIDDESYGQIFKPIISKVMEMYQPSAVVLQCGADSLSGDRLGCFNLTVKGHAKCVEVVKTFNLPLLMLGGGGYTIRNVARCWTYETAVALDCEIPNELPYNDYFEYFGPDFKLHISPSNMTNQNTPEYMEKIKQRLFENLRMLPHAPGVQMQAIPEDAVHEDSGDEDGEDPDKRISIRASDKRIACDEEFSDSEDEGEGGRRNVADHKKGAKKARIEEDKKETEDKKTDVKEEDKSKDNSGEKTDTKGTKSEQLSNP
Chain of HDAC6 (Q9UBN7 whole entry): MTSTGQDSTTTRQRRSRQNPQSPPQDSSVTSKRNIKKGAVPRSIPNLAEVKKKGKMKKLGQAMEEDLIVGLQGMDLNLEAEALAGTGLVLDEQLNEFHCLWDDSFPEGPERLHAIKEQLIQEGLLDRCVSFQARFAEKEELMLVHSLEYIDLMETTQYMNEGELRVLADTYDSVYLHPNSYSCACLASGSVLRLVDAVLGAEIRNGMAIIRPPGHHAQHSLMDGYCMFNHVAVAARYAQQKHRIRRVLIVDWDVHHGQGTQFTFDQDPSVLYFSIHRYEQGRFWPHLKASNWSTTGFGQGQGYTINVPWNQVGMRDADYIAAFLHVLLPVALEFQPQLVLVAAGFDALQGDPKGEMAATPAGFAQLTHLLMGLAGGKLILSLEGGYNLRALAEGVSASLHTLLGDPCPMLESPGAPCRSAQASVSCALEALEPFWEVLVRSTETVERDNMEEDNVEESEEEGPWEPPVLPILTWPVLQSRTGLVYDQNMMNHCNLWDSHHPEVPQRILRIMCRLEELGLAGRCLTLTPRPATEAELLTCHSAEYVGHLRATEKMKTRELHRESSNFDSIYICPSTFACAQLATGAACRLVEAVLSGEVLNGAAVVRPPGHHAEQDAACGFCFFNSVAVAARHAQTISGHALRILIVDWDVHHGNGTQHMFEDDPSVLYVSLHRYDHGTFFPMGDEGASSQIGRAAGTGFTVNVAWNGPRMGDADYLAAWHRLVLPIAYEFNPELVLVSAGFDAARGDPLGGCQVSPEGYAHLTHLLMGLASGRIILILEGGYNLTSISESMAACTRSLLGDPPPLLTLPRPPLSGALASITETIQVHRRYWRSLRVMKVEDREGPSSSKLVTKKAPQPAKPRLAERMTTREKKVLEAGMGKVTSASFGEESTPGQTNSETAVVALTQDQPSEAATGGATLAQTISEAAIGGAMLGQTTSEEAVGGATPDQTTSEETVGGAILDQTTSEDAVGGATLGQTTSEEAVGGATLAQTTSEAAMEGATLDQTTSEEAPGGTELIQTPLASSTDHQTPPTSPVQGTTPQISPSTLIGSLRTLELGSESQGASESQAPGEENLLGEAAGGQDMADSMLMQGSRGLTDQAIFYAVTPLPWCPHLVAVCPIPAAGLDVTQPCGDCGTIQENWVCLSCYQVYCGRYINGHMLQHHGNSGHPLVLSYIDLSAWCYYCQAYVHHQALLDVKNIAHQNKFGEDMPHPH

Row | SMILES | IC50 [1] [µM] | IC50 (HDAC6; [5]) [nM] | IC50 (HDAC6; [6]) [nM] | IC50 (HDAC2) [nM] | IC50 [2] [µM] | IC50 [3] [µM] | IC50 (PaCa2 (pancreatic) cells) [µM] | IC50 [4] [µM] | IC50 (HDAC8) [nM] | IC50 (HDAC1) [nM] | IC50 (HDAC3) [nM]
1 | CC(C)c1ccc(-c2cc3ccc(C(=O)NO)cc3s2)cc1 [Example 88, N-Hydroxy-2-[4-(1-methylethyl)phenyl]-1-benzothiophene-6-carboxamide] | 0.42 | 37 | 14 | 14000 | 1.1 | > 20 | 0.82 | 0.36 | 1100 | 26000 | 10000
2 | COc1ccncc1-c1ccc(-c2nc3cc(C(=O)NO)ccc3o2)cc1 [Example 26, N-hydroxy-2-[4-(4-methoxypyridin-3-yl)phenyl]-1,3-benzoxazole-5-carboxamide] | 1.1 | 5 |  |  | 1.7 | > 20 | 1.1 | 0.61 |  |  | 
3 | O=C(NO)c1ccc2oc(-c3ccc(-c4ccccc4F)cc3)nc2c1 [Example 21, 2-(2′-Fluorobiphenyl-4-yl)-N-hydroxy-1,3-benzoxazole-5-carboxamide] | 0.94 | 28 | 28 | > 200000 | 1.1 | > 20 | 1.2 | 0.64 | 700 | 5600 | 1800
4 | COc1ccc(-c2ccc(-c3nc4cc(C(=O)NO)ccc4o3)cc2)cn1 [Example 27, N-hydroxy-2-[4-(6-methoxypyridin-3-yl)phenyl]-1,3-benzoxazole-5-carboxamide] | 0.89 |  | 3 | > 200000 | 3.1 | > 20 | 0.81 | 0.62 | > 2000 | > 200000 | 820
5 | CC(C)c1ccc(-c2cc3ccc(C(=O)NO)cc3o2)cc1 [Example 112, N-Hydroxy-2-[4-(1-methylethyl)phenyl]-1-benzofuran-6-carboxamide] | 0.58 | 7 |  |  | 1.2 | > 20 | 0.89 | 0.46 |  |  | 
6 | O=C(NO)c1ccc2sc(-c3cccc(C(F)(F)F)c3)cc2c1 [Example 90, N-hydroxy-2-[3-(trifluoromethyl)phenyl]-1-benzothiophene-5-carboxamide] | 0.58 | 28 |  |  | 0.81 | > 20 | 0.8 | 0.5 |  |  | 
7 | CC(C)c1ccc(-c2cc3cc(C(=O)NO)ccc3s2)cc1 [Example 89, N-Hydroxy-2-[4-(1-methylethyl)phenyl]-1-benzothiophene-5-carboxamide] | 0.43 | 55 | 26 | 90000 | 0.81 | > 20 | 0.68 | 0.44 | > 2000 | 100000 | 90000
8 | CC(C)c1ccc(-c2cc3ccc(C(=O)NO)cc3[nH]2)cc1 [Example 59, N-Hydroxy-2-[4-(1-methylethyl)phenyl]-1H-indole-6-carboxamide] | 1.7 |  |  |  | 1.2 | > 20 | 1.4 | 0.66 |  |  | 
9 | CC(C)Oc1ccc(-c2cc3cc(C(=O)NO)ccc3s2)cc1Cl [Example 107, 2-[3-chloro-4-(1-methylethoxy)phenyl]-N-hydroxy-1-benzothiophene-5-carboxamide] | 0.42 |  |  |  | 0.42 | > 20 | 1.3 | 0.37 |  |  | 
10 | O=C(NO)c1ccc2sc(-c3ccc(OC(F)(F)F)cc3)cc2c1 [Example 102, N-hydroxy-2-[4-(trifluoromethoxy)phenyl]-1-benzothiophene-5-carboxamide] | 0.64 | 70 |  |  | 0.41 | > 20 | 2.48 | 0.47 |  |  | 
11 | CC(C)(C)c1ccc(-c2cc3cc(C(=O)NO)ccc3s2)cc1 [Example 103, 2-(4-tert-butylphenyl)-N-hydroxy-1-benzothiophene-5-carboxamide] | 0.55 |  |  |  | 0.6 | > 20 | 1.46 | 0.49 |  |  | 
